Measurements from ChEMBL document CHEMBL1201862, “PubChem BioAssay data set” (2004).
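Method: 48-hour compound exposure of cells in 96-well plates, five concentrations, linear interpolation of endpoints. The concentration for 50% growth inhibition is given as GI50.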 Activity calls are given as the source filed them. No stated cut-off is given here; in the data, active = GI50 up to about 1.1 µM and inactive = higher.

Tests used:
Experiment in all cases: NCI tumour cell line growth inhibition, 48 h
UACC-257 = tested on: UACC-257
SK-MEL-2 = tested on: SK-MEL-2
UACC-62 = tested on: UACC-62
NCI-H226 = tested on: NCI-H226
ACHN = tested on: ACHN
SF-295 = tested on: SF-295
MDA-N = tested on: MDA-N
HCT-116 = tested on: HCT-116
LOX IMVI = tested on: LOX IMVI
SK-MEL-28 = tested on: SK-MEL-28
COLO 205 = tested on: COLO 205
SN12C = tested on: SN12C
SNB-19 = tested on: SNB-19
MOLT-4 = tested on: MOLT-4
CCRF-CEM = tested on: CCRF-CEM
NCI-H522 = tested on: NCI-H522
RXF 393 = tested on: RXF 393
SF-268 = tested on: SF-268
TK-10 = tested on: TK-10
OVCAR-3 = tested on: OVCAR-3
SR = tested on: SR
HCC 2998 = tested on: HCC 2998
786-0 = tested on: 786-0
A549 = tested on: A549
IGROV-1 = tested on: IGROV-1
MCF7 = tested on: MCF7
OVCAR-8 = tested on: OVCAR-8
NCI/ADR-RES = tested on: NCI/ADR-RES
DU-145 = tested on: DU-145
SNB-75 = tested on: SNB-75
A498 = tested on: A498
HT-29 = tested on: HT-29
NCI-H460 = tested on: NCI-H460
K562 = tested on: K562
UO-31 = tested on: UO-31
SK-MEL-5 = tested on: SK-MEL-5
NCI-H23 = tested on: NCI-H23
Malme-3M = tested on: Malme-3M
HCT-15 = tested on: HCT-15
HL-60 = tested on: HL-60
T47D = tested on: T47D
MDA-MB-231 = tested on: MDA-MB-231
KM12 = tested on: KM12
U-251 = tested on: U-251
MDA-MB-435 = tested on: MDA-MB-435
OVCAR-4 = tested on: OVCAR-4
CAKI-1 = tested on: CAKI-1
BT-549 = tested on: BT-549
HOP-62 = tested on: HOP-62
SW-620 = tested on: SW-620
HOP-92 = tested on: HOP-92
PC-3 = tested on: PC-3
OVCAR-5 = tested on: OVCAR-5
EKVX = tested on: EKVX
SF-539 = tested on: SF-539
M14 = tested on: M14
SK-OV-3 = tested on: SK-OV-3
RPMI-8226 = tested on: RPMI-8226

C=CCN1CC2CN=NC2(C#N)C1 (centres undefined)
GI50 (UACC-257): > 100 µM (inactive) | GI50 (SK-MEL-2): > 100 µM (inactive) | GI50 (UACC-62): > 100 µM (inactive) | GI50 (NCI-H226): > 100 µM (inactive) | GI50 (ACHN): > 100 µM (inactive) | GI50 (SF-295): > 100 µM (inactive) | GI50 (MDA-N): > 100 µM (inactive) | GI50 (HCT-116): > 100 µM (inactive) | GI50 (LOX IMVI): > 100 µM (inactive) | GI50 (SK-MEL-28): > 100 µM (inactive) | GI50 (COLO 205): > 100 µM (inactive) | GI50 (SN12C): > 100 µM (inactive) | GI50 (SNB-19): > 100 µM (inactive) | GI50 (MOLT-4): > 100 µM (inactive) | GI50 (CCRF-CEM): > 100 µM (inactive) | GI50 (NCI-H522): > 100 µM (inactive) | GI50 (RXF 393): > 100 µM (inactive) | GI50 (SF-268): > 100 µM (inactive) | GI50 (TK-10): > 100 µM (inactive) | GI50 (OVCAR-3): > 100 µM (inactive) | GI50 (SR): > 100 µM (inactive) | GI50 (HCC 2998): > 100 µM (inactive) | GI50 (786-0): > 100 µM (inactive) | GI50 (A549): > 100 µM (inactive) | GI50 (IGROV-1): > 100 µM (inactive) | GI50 (MCF7): > 100 µM (inactive) | GI50 (OVCAR-8): > 100 µM (inactive) | GI50 (NCI/ADR-RES): > 100 µM (inactive) | GI50 (DU-145): > 100 µM (inactive) | GI50 (SNB-75): > 100 µM (inactive) | GI50 (A498): > 100 µM (inactive) | GI50 (HT-29): > 100 µM (inactive) | GI50 (NCI-H460): > 100 µM (inactive) | GI50 (K562): > 100 µM (inactive) | GI50 (UO-31): > 100 µM (inactive) | GI50 (SK-MEL-5): > 100 µM (inactive) | GI50 (NCI-H23): > 100 µM (inactive) | GI50 (Malme-3M): > 100 µM (inactive) | GI50 (HCT-15): > 100 µM | GI50 (HL-60): > 100 µM (inactive) | GI50 (T47D): > 100 µM (inactive) | GI50 (MDA-MB-231): > 100 µM (inactive) | GI50 (KM12): > 100 µM (inactive) | GI50 (U-251): > 100 µM (inactive) | GI50 (MDA-MB-435): > 100 µM (inactive) | GI50 (OVCAR-4): > 100 µM (inactive) | GI50 (CAKI-1): > 100 µM (inactive) | GI50 (BT-549): > 100 µM (inactive) | GI50 (HOP-62): > 100 µM (inactive) | GI50 (SW-620): > 100 µM (inactive) | GI50 (HOP-92): 2.33 µM (inactive) | GI50 (PC-3): > 100 µM (inactive) | GI50 (OVCAR-5): > 100 µM (inactive) | GI50 (EKVX): > 100 µM (inactive)

O=C1c2ccccc2OCC12OC21C=CC(Cl)=CC1 (centres undefined)
GI50 (UACC-257): 32.2 µM (inactive) | GI50 (SK-MEL-2): 21.7 µM (inactive) | GI50 (UACC-62): 27.3 µM (inactive) | GI50 (NCI-H226): 30.5 µM (inactive) | GI50 (ACHN): 38.5 µM (inactive) | GI50 (MDA-N): 17 µM (inactive) | GI50 (HCT-116): 18.9 µM (inactive) | GI50 (LOX IMVI): 13.5 µM (inactive) | GI50 (SK-MEL-28): 28.4 µM (inactive) | GI50 (COLO 205): 18 µM (inactive) | GI50 (SF-539): 52.4 µM (inactive) | GI50 (SN12C): 15.7 µM (inactive) | GI50 (SNB-19): 29.8 µM (inactive) | GI50 (MOLT-4): 0.113 µM (active) | GI50 (RXF 393): 24.9 µM (inactive) | GI50 (SF-268): 35.5 µM (inactive) | GI50 (TK-10): 33.2 µM (inactive) | GI50 (OVCAR-3): 20.5 µM (inactive) | GI50 (SR): 2.07 µM (inactive) | GI50 (HCC 2998): 19.1 µM (inactive) | GI50 (A549): 18.6 µM (inactive) | GI50 (IGROV-1): 42.9 µM (inactive) | GI50 (MCF7): 33.4 µM (inactive) | GI50 (NCI/ADR-RES): 22.5 µM (inactive) | GI50 (M14): 33.5 µM (inactive) | GI50 (DU-145): 14.4 µM (inactive) | GI50 (A498): 20.7 µM (inactive) | GI50 (HT-29): 19.1 µM (inactive) | GI50 (NCI-H460): 20.3 µM (inactive) | GI50 (K562): 16.6 µM (inactive) | GI50 (UO-31): 29.6 µM (inactive) | GI50 (SK-MEL-5): 13.2 µM (inactive) | GI50 (NCI-H23): 16 µM (inactive) | GI50 (Malme-3M): 18.5 µM (inactive) | GI50 (HCT-15): 28.6 µM | GI50 (HL-60): 15.7 µM (inactive) | GI50 (SK-OV-3): 51.8 µM (inactive) | GI50 (MDA-MB-231): 22 µM (inactive) | GI50 (RPMI-8226): 14.8 µM (inactive) | GI50 (KM12): 17.6 µM (inactive) | GI50 (U-251): 17.3 µM (inactive) | GI50 (MDA-MB-435): 20.1 µM (inactive) | GI50 (OVCAR-4): 12.4 µM (inactive) | GI50 (BT-549): 37.9 µM (inactive) | GI50 (HOP-62): 33.7 µM (inactive) | GI50 (SW-620): 29.4 µM (inactive) | GI50 (HOP-92): 36.1 µM (inactive) | GI50 (PC-3): 26.5 µM (inactive) | GI50 (OVCAR-5): 31.8 µM (inactive) | GI50 (EKVX): 18.7 µM (inactive)
